In PubChem BioAssay AID1421 (Emory University Molecular Libraries Screening Center, 2008):

Each compound was assayed against Prostaglandin E2 receptor EP2 subtype (Homo sapiens) (UniProt P43116) (assay: compounds shifting PGE2 potency at EP2 – cell-based, human EP2, PGE2 EC50 shift, dose response (AID 1421)). Conditions: EP2-expressing cells, PGE2 EC50 shift by compound; measured here: PGE2 EC50 at 6.7 uM compound.
Prostaglandin E2 receptor EP2 subtype (Homo sapiens), sequence (P43116 whole entry, looked up): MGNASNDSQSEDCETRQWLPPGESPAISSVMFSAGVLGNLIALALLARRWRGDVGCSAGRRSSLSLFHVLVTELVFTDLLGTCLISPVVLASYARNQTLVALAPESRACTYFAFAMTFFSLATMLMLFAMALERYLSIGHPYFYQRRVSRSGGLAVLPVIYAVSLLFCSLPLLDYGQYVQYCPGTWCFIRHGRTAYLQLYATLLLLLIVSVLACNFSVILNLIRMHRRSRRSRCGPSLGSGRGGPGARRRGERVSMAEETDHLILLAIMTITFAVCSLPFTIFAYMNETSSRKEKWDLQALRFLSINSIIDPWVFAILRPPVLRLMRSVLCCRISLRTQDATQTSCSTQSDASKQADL
With `COc1ccc(-c2nc(NC(C)=O)sc2-c2ccc(OC)cc2)cc1` the PGE2 EC50 with compound was 0.95 nM. Work on `O=C(Nc1ccccc1-c1nc2ccccc2s1)C1=COCCO1` yielded a PGE2 EC50 with compound of 0.46 nM. With `Cc1ccc(-n2c(SCC(=O)Nc3ccc4c(c3)OCO4)nnc2-c2ccoc2C)cc1` the PGE2 EC50 with compound was 1.18 nM. For `CCOc1ccc(N(Cc2ccc(OC)cc2)C(=O)c2ccco2)cc1`, the PGE2 EC50 with compound was 1.12 nM. `Cc1ccc(NCc2ccccc2OCc2ccccc2F)cc1` was tested, and the PGE2 EC50 with compound was 0.86 nM. `COc1ccc(-c2cc(C(F)(F)F)nc(NC3CCCC3)n2)cc1OC` gave a PGE2 EC50 with compound of 0.7 nM. `CCc1c(C)nc2ccc(Br)cc2c1SCCC#N` gave a PGE2 EC50 with compound of 2.61 nM. With `Cc1ccc(NC2=C(C(=O)c3ccccc3)N(C)S(=O)(=O)c3ccccc32)cc1` the PGE2 EC50 with compound was 1.28 nM. `COC(=O)c1cc(-c2ccc3c(c2)OCO3)nc2ccccc12` was tested, and the PGE2 EC50 with compound was 0.7 nM. `CC1CCN(c2ccccc2NC(=O)c2ccc(C#N)cc2F)CC1` gave a PGE2 EC50 with compound of 0.93 nM. With `CCCCOP(=O)(OCCCC)C(Nc1ccccc1)c1ccc2c(c1)OCO2` (stereo not drawn) the PGE2 EC50 with compound was 0.8 nM. `CNC(=O)NC(=O)CSc1nc(-c2cccs2)c(C#N)c(=O)[nH]1` showed a PGE2 EC50 with compound of 3.08 nM. Compound `COc1ccc(-c2nc3ccccc3n2Cc2ccccc2)cc1` has a PGE2 EC50 with compound of 1.05 nM. `CC(C)(C)N(Cc1ccccc1)C(=O)c1ccc(Br)o1` showed a PGE2 EC50 with compound of 0.94 nM. `O=c1c2cn[nH]c2nc(SCc2ccccc2F)n1-c1ccc(Br)cc1` showed a PGE2 EC50 with compound of 0.77 nM. `C/C(CCC(C)C)=N\NC(=S)NCc1ccccc1` gave a PGE2 EC50 with compound of 0.88 nM. Work on `FC(F)(F)c1cc(-c2ccccc2)nc(N2CCOCC2)n1` yielded a PGE2 EC50 with compound of 1.59 nM. `CCOC(=O)c1c(NC(=O)c2ccoc2C)sc(C)c1C` showed a PGE2 EC50 with compound of 0.94 nM. In the case of `COc1ccc(N(Cc2ccccc2)S(=O)(=O)c2ccc(C)cc2)cc1`, the PGE2 EC50 with compound is reported as 1.05 nM. `CC(=C\c1ccccc1)/C=C1/SC(=S)N(C(C(=O)O)C(C)C)C1=O` (stereo not drawn) gave a PGE2 EC50 with compound of 1.31 nM. Compound `COc1cc(-c2nc(-c3cccc(C(F)(F)F)c3)no2)cc(OC)c1OC` has a PGE2 EC50 with compound of 0.89 nM. In the case of `CC[C@@H]1Cc2cc(O)ccc2C2=C1c1ccc(O)cc1C[C@H]2CC`, the PGE2 EC50 with compound is reported as 0.3 nM. `Cc1ccc2oc(=O)n(Cc3ccccc3OC(C)C)c2c1` showed a PGE2 EC50 with compound of 0.64 nM. `O=C(Nc1ccccc1N1CCCCC1)c1cccc([N+](=O)[O-])c1` showed a PGE2 EC50 with compound of 0.9 nM. `CCOC(=O)c1cnc2ccc(OCC)cc2c1N(C)Cc1ccccc1` gave a PGE2 EC50 with compound of 2.48 nM. For `COc1ccccc1Nc1cc(C)nc2c(C)ccc([N+](=O)[O-])c12`, the PGE2 EC50 with compound was 1.12 nM. Work on `CCC(c1nnnn1Cc1ccco1)N(Cc1cc2cc(C)cc(C)c2[nH]c1=O)CC1CCCO1` (stereo not drawn) yielded a PGE2 EC50 with compound of 1.56 nM. In the case of `O=C(c1ccco1)N(CC1CCCO1)c1nc(-c2ccccc2)cs1` (stereo not drawn), the PGE2 EC50 with compound is reported as 0.61 nM. Compound `CCC(=O)Oc1ccc(C(CC)C(CC)c2ccc(OC(=O)CC)cc2)cc1` (stereo not drawn) has a PGE2 EC50 with compound of 0.32 nM. Work on `COc1c(O)cc2oc3cc(O)c(CC=C(C)C)c(O)c3c(=O)c2c1CC=C(C)C` yielded a PGE2 EC50 with compound of 2.62 nM. With `Cc1cc(C)cc(OC2CCCCC2NS(=O)(=O)c2ccccc2)c1` (stereo not drawn) the PGE2 EC50 with compound was 1.62 nM. Compound `O=C(/C=C/Nc1ccccc1Oc1ccccc1)c1ccco1` has a PGE2 EC50 with compound of 2.67 nM. For `O=C(Nc1ccc2c(c1)OCO2)c1cccc2c1C(=O)N(C1CCCCC1)C2`, the PGE2 EC50 with compound was 0.8 nM. `Cc1cc(SCC(=O)NCCC2=CCCCC2)nc2ccccc12` gave a PGE2 EC50 with compound of 2.66 nM. `CCN(c1cccc(C)c1)S(=O)(=O)c1ccc2c3c(cccc13)C(=O)N2` was tested, and the PGE2 EC50 with compound was 0.53 nM. For `CC1(C)Cc2ccccc2-c2nc3n(c(=O)c21)CCS3`, the PGE2 EC50 with compound was 0.79 nM. Compound `CCOC(=O)CC(=O)CSc1ncnc2c1oc1ccccc12` has a PGE2 EC50 with compound of 2.64 nM. `COc1ccc2c(COC(=O)c3n[nH]c4ccccc34)cc(=O)oc2c1` showed a PGE2 EC50 with compound of 1.31 nM. In the case of `CCOP(=O)(OCC)c1nc(/C=C/c2ccccc2)oc1NCc1ccccc1`, the PGE2 EC50 with compound is reported as 1.27 nM. Compound `Cc1cccc(C)c1OCc1nnc(SCC(=O)Nc2nccs2)n1-c1ccccc1` has a PGE2 EC50 with compound of 1.01 nM. `Cn1c(=O)c2c(nc(SCC(=O)c3cccs3)n2Cc2ccc(F)cc2)n(C)c1=O` gave a PGE2 EC50 with compound of 0.99 nM. Compound `O=c1[nH]c(CSc2ncc(-c3ccc(F)cc3)n2Cc2ccco2)nc2ccccc12` has a PGE2 EC50 with compound of 0.71 nM. For `CC1=C(/C=C/C(C)=C/C=C/C(C)=C/C(=O)O)C(C)(C)CCC1`, the PGE2 EC50 with compound was 1.19 nM. `COc1cc(C2Oc3cc(C4Oc5cc(O)cc(O)c5C(=O)C4O)ccc3OC2CO)ccc1O` (stereo not drawn) was tested, and the PGE2 EC50 with compound was 1.15 nM. `CCOC(=O)Cc1csc(NC(NC(=O)CC)(C(F)(F)F)C(F)(F)F)n1` gave a PGE2 EC50 with compound of 1.03 nM. For `CC(C)n1cc(-c2ccc(Cl)cc2)cc(C#N)c1=O`, the PGE2 EC50 with compound was 1.21 nM. `CCN(CC)C(=O)Cn1cc(C(=O)C(=O)NCc2ccco2)c2ccccc21` showed a PGE2 EC50 with compound of 1.55 nM. In the case of `COC(=O)CC1C(C)(C)C(OC(C)=O)[C@@H]2[C@@H](OC(C)=O)[C@]34O[C@@]2(O)[C@]1(C)C3CC[C@]1(C)C4=CC(=O)O[C@H]1c1ccoc1` (stereo partly drawn), the PGE2 EC50 with compound is reported as 0.74 nM. `Cc1ccc2nc(-c3ccccn3)c(Nc3ccccc3C)n2c1` was tested, and the PGE2 EC50 with compound was 0.79 nM. With `CC(C)Cc1nc2sc3c(=O)[nH]cnc3c2c2c1CCC2` the PGE2 EC50 with compound was 1.48 nM. Compound `S=c1[nH]nc(-c2ccccc2)n1/N=C/c1ccc(-c2ccccc2Cl)o1` has a PGE2 EC50 with compound of 2.43 nM. `CSc1nc(Oc2ccc(F)cc2)c2ccccc2n1` was tested, and the PGE2 EC50 with compound was 0.61 nM. In the case of `CNC[C@H](O)c1ccc(O)c(O)c1`, the PGE2 EC50 with compound is reported as 0.65 nM. `C/C(CCc1oc2ccccc2c1-c1ccc(C)o1)=N/O` gave a PGE2 EC50 with compound of 0.95 nM. In the case of `COc1ccc(OC)c(/C=C/C(=O)N2CCCc3ccccc32)c1`, the PGE2 EC50 with compound is reported as 1.13 nM. `CC(=O)CSc1nc(-c2cccs2)c(C#N)c(=O)[nH]1` showed a PGE2 EC50 with compound of 2.81 nM. Work on `Cc1ccccc1NC(=O)CSc1nc(COc2ccccc2)nc2ccccc12` yielded a PGE2 EC50 with compound of 1.24 nM. In the case of `Cc1ccccc1NC(=S)N(Cc1ccco1)C(C)c1cccs1` (stereo not drawn), the PGE2 EC50 with compound is reported as 1.68 nM.
